Results reported in ChEMBL document CHEMBL5365473, “Novel Sulfonylurea-Based NLRP3 Inflammasome Inhibitor for Efficient Treatment of Nonalcoholic Steatohepatitis, Endotoxic Shock, and Colitis” (J Med Chem, 2023).
Calls of active or inactive are those of the source. The calls are words filed in the database; no cut-off is given here.

Assays:
Mus musculus [1] = experiment: Antiinflammatory activity against DSS-induced ulcerative colitis C57BL/6 mouse assessed as reduction in inflammatory cells infiltration in lamina propria in colon at 10 mg/kg, ip administered for 9 days and measured on day 10 by H and E staining based analysis; assay type: functional, organism-based; conditions: time 10.0 day
[2] = molecular target: NACHT, LRR and PYD domains-containing protein 3 (Mus musculus, UniProt Q8R4B8); experiment: Inhibition of NLRP3 inflammasome in mouse […] cells assessed as inhibition of LPS/ATP-induced IL-1 beta secretion primed with LPS for 4.5 hs followed by incubation with compound for 30 mins and later stimulation with ATP for 30 mins by ELISA; assay type: cell-based, J774.A1
Hepatocyte = experiment: Cytotoxicity against mouse primary hepatic cells assessed as reduction in cell viability at 200 uM measured after 24 hrs by CCK8 assay; assay type: toxicity, cell-based; conditions: hepatocytes
[3] = Toxicity against female ICR mouse assessed as effect on body weight at 200 to 500 mg/kg administered via gavage for 12 days; assay type: organism-based; conditions: in vivo, po, 288 h, dose 200-500 mg/kg, time 12 day
[4] = Toxicity against female ICR mouse assessed as effect on brain weight at 200 to 500 mg/kg administered via gavage for 12 days; assay type: organism-based; conditions: in vivo, po, 288 h, dose 200-500 mg/kg, time 12 day
[5] = Toxicity against female ICR mouse assessed as effect on plasma AST level at 200 to 500 mg/kg administered via gavage for 12 days; assay type: organism-based; conditions: in vivo, po, 288 h, dose 200-500 mg/kg, time 12 day
[6] = Toxicity against female ICR mouse assessed as effect on plasma ALT level at 200 to 500 mg/kg administered via gavage for 12 days; assay type: organism-based; conditions: in vivo, po, 288 h, dose 200-500 mg/kg, time 12 day
[7] = Toxicity against female ICR mouse assessed as effect on plasma creatinine level at 200 to 500 mg/kg administered via gavage for 12 days; assay type: organism-based; conditions: in vivo, po, 288 h, dose 200-500 mg/kg, time 12 day
[8] = Toxicity against male ICR mouse assessed as effect on ratio of plasma AST to ALT level at 200 to 500 mg/kg administered via gavage for 12 days; assay type: organism-based; conditions: in vivo, po, 288 h, dose 200-500 mg/kg, time 12 day
J774.A1 = experiment: Effect on NLRP3 protein expression in mouse J774.A1 cells at 3 to 30 nM primed with LPS for 4.5 hrs followed by incubation with compound for 2.5 hrs and later stimulated with ATP for 30 mins by immunoblot analysis; assay type: functional, cell-based; conditions: dose 3-30 nM, time 3.0 hrs
[9] = molecular target: NACHT, LRR and PYD domains-containing protein 3 (Homo sapiens) (UniProt Q96P20); experiment: Inhibition of NLRP3 inflammasome in PMA-induced differentiated human THP-1 cells assessed as inhibition of IL-1 beta secretion primed with LPS for 4.5 hrs followed by incubation with compound for 2.5 hrs and later stimulated with ATP for 1 hr by immunoblot analysis; assay type: cell-based; conditions: dose 3-30 nM, time 3.5 hrs
[10] = molecular target: NACHT, LRR and PYD domains-containing protein 3 (Mus musculus) (UniProt Q8R4B8); experiment: Inhibition of NLRP3 inflammasome in mouse J774.A1 cells assessed as inhibition of IL-1 beta secretion at 30 nM primed with LPS for 4.5 hrs followed by incubation with compound for 24 hrs and later stimulated with nigericin for 1 hr by immunoblot analysis; assay type: cell-based; conditions: time 25.0 hrs
[11] = molecular target: T1, Interferon-inducible protein AIM2 (Mus musculus) (UniProt Q91VJ1); experiment: Inhibition of AIM2 inflammasome in mouse J774.A1 cells assessed as inhibition of caspase-1 activation at 30 nM primed with LPS for 4.5 hrs followed by incubation with compound for 24 hrs and later stimulated with poly (dA:dT) for 6 hrs by immunoblot analysis; assay type: cell-based; conditions: time 30.0 hrs
T1 sequence (whole entry): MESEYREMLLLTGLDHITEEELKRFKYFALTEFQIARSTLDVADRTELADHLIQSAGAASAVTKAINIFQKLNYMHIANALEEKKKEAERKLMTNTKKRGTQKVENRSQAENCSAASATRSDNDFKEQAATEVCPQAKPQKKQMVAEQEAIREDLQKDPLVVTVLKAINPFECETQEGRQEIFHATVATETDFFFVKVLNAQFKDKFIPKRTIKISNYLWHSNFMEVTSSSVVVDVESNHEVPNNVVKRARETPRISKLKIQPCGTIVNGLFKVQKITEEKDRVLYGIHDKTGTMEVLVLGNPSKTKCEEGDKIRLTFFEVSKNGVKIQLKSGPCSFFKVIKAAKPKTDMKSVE

[12] = molecular target: NLR family CARD domain-containing protein 4 (Mus musculus) (UniProt Q3UP24); experiment: Inhibition of NLRC4 inflammasome in mouse J774.A1 cells assessed as inhibition of IL-1 beta secretion at 30 nM primed with LPS for 4.5 hrs followed by incubation with compound for 24 hrs and later stimulated with flagellin for 24 hrs by immunoblot analysis; assay type: cell-based; conditions: time 48.0 hrs
THP-1 = experiment: Effect on mitochondrial function in PMA-induced differentiated human THP-1 cells assessed as effect on extracellular ATP-induced decrease in mitochondrial membrane potential at 30 nM pretreated with compound for 24 hrs followed by stimulation with LPS for 4.5 hrs and ATP for 1 hr by MitoTracker red dye based confocal microscopy; assay type: functional, cell-based; conditions: time 29.5 hrs
[13] = AUC (0 to infinity) in ICR mouse at 5 mg/kg, iv by LC-MS/MS analysis; assay type: ADME, organism-based; design: dose 5 mg/kg, route iv; conditions: in vivo
[14] = Clearance in ICR mouse at 5 mg/kg, iv by LC-MS/MS analysis; assay type: ADME, organism-based; conditions: in vivo
[15] = Tmax in ICR mouse at 10 mg/kg, po by LC-MS/MS analysis; assay type: ADME, organism-based; conditions: in vivo
[16] = Cmax in ICR mouse at 10 mg/kg, po by LC-MS/MS analysis; assay type: ADME, organism-based; design: dose 10 mg/kg, route po; conditions: in vivo
[17] = AUC (0 to infinity) in ICR mouse at 10 mg/kg, po by LC-MS/MS analysis; assay type: ADME, organism-based; design: dose 10 mg/kg, route po; conditions: in vivo
[18] = Drug uptake in Sprague-Dawley rat liver at 50 mg/kg, po measured for 24 hrs by LC-MS/MS analysis; assay type: ADME, organism-based; conditions: in vivo
[19] = Drug uptake in Sprague-Dawley rat kidney at 50 mg/kg, po measured for 24 hrs by LC-MS/MS analysis; assay type: ADME, organism-based; conditions: in vivo
[20] = Drug uptake in Sprague-Dawley rat lungs at 50 mg/kg, po measured for 24 hrs by LC-MS/MS analysis; assay type: ADME, organism-based, Lung; conditions: in vivo
[21] = Drug uptake in Sprague-Dawley rat spleen at 50 mg/kg, po measured for 24 hrs by LC-MS/MS analysis; assay type: ADME, organism-based; conditions: in vivo
Mus musculus [22] = experiment: Antiinflammatory activity against MCD diet-induced NASH C57BL/6 mouse model assessed as reduction in immune cell infiltration by measuring reduction in CD45-positive hepatic cells at 40 mg/kg, po administered via gavage for 5 weeks by immunofluorescence staining based analysis; assay type: functional, organism-based
Mus musculus [23] = experiment: Antiinflammatory activity against LPS-induced lethal septic shock C57BL/6 mouse model assessed as increase in animal's survival rate at 40 mg/kg, ip administered for 1 hr prior to LPS challenge and measured for 72 hrs; assay type: functional; conditions: time 73 hrs
Mus musculus [24] = experiment: Antiinflammatory activity against LPS-induced lethal septic shock C57BL/6 mouse model assessed as increase in animal's survival rate at 20 mg/kg, ip administered for 1 hr prior to LPS challenge and measured for 72 hrs; assay type: functional; conditions: time 73 hrs
Mus musculus [25] = experiment: Antiinflammatory activity against LPS-induced lethal septic shock C57BL/6 mouse model assessed as effect on TNF-alpha level at 40 mg/kg, ip administered for 1 hr prior to LPS challenge and measured after 2.5 hrs by ELISA; assay type: functional, organism-based; conditions: time 3.5 hrs
Mus musculus [26] = experiment: Antiinflammatory activity against DSS-induced ulcerative colitis C57BL/6 mouse assessed as reduction in body weight loss at 10 mg/kg, ip administered for 9 days and measured daily; assay type: functional, organism-based; conditions: time 9.0 day

Chain of NACHT, LRR and PYD domains-containing protein 3 (Q8R4B8 whole entry, the tested form may be a part): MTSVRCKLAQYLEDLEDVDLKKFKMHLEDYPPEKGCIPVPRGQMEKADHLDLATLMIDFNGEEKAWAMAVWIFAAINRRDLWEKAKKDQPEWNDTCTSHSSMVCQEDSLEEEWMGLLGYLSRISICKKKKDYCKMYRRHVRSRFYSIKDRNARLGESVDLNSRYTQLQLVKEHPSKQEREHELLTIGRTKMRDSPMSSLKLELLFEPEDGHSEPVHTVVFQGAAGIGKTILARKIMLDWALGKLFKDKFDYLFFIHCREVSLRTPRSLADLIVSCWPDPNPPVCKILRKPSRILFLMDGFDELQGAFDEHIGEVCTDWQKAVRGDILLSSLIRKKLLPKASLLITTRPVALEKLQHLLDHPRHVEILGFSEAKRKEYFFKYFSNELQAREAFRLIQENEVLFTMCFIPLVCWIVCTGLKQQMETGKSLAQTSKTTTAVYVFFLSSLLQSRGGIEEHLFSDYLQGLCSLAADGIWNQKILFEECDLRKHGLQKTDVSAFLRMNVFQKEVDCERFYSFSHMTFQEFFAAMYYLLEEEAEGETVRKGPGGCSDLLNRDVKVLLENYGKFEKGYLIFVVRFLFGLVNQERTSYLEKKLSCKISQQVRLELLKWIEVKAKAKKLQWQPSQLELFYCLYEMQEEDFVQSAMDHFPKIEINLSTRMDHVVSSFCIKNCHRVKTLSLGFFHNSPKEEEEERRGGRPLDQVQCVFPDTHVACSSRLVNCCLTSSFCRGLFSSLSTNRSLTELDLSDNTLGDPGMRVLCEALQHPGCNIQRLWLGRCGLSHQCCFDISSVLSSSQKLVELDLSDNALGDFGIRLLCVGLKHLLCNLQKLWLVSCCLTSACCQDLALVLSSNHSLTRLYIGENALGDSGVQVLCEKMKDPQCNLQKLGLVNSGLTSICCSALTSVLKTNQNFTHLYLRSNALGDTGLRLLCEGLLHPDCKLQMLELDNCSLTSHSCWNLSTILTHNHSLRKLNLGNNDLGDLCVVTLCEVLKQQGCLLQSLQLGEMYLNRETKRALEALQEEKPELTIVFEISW
Chain of NACHT, LRR and PYD domains-containing protein 3 (Mus musculus) (Q8R4B8 whole entry, the tested form may be a part): as above
Chain of NACHT, LRR and PYD domains-containing protein 3 (Homo sapiens) (Q96P20 whole entry, the tested form may be a part): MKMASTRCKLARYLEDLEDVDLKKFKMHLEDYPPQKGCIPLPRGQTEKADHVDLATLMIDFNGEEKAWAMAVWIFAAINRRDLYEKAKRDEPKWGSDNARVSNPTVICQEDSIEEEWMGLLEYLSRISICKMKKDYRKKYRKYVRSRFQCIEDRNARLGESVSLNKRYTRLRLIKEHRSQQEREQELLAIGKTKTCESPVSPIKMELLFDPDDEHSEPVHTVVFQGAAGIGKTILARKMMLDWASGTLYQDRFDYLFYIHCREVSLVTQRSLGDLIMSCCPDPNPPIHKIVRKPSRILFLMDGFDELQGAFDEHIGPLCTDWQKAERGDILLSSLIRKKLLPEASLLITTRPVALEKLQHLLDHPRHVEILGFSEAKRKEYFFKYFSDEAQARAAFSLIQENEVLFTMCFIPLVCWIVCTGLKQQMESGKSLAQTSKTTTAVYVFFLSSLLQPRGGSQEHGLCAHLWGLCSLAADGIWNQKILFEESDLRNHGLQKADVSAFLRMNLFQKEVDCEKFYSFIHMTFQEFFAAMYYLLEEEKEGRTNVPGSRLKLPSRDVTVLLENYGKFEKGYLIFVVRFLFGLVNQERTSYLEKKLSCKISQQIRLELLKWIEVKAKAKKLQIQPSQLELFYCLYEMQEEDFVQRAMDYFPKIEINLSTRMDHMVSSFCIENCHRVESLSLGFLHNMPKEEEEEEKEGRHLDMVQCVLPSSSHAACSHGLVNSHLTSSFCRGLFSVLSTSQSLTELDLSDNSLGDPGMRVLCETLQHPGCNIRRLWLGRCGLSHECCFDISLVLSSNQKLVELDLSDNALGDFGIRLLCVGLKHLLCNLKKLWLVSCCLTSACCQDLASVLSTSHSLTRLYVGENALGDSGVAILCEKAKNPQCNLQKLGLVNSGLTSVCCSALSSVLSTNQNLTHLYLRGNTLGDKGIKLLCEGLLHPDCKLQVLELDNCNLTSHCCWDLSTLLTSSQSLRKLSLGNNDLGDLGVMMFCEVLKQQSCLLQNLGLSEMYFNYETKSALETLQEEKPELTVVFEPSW
Chain of NLR family CARD domain-containing protein 4 (Mus musculus) (Q3UP24 whole entry, the tested form may be a part): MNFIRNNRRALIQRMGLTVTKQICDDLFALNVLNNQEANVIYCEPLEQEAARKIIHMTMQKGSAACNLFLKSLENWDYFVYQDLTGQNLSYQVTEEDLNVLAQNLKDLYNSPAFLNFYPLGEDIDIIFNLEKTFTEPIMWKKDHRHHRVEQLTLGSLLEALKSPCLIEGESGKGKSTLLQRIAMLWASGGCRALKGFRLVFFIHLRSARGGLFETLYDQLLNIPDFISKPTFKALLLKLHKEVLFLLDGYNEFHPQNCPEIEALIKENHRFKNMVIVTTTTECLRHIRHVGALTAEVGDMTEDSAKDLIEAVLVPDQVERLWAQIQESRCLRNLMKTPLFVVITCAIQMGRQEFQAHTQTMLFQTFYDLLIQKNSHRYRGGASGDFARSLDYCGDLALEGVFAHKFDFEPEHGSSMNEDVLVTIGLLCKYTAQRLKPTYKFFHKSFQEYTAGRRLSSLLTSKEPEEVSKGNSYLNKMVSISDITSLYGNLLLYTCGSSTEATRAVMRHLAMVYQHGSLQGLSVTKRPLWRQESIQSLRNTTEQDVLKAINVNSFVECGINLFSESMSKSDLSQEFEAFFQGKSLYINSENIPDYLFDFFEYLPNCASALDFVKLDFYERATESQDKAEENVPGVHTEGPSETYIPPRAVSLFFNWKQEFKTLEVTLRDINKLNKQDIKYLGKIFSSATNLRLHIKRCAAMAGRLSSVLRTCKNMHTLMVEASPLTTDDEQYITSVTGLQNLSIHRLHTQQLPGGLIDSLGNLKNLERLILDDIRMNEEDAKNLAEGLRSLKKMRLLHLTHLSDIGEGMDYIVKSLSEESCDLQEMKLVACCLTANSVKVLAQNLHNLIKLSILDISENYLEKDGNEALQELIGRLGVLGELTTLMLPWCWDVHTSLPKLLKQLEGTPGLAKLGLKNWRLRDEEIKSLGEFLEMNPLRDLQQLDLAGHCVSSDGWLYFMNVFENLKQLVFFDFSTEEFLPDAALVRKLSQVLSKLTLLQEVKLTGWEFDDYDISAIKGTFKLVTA

For `CN(C)Cc1ccc(S(=O)(=O)NC(=O)Nc2c3c(cc4c2CCC4)CCC3)cc1`, the Activity (Mus musculus [1]) was “Active”, the IC50 [2] was 0.025 µM and the Activity (Hepatocyte) was “Non-Toxic”. The Activity [3] was “Non-Toxic”, the Activity [4] was “Non-Toxic” and the Activity [5] was “Non-Toxic”. For the same compound, the Activity [6] was “Non-Toxic”, the Activity [7] was “Non-Toxic” and the Activity [8] was “Non-Toxic”. The Activity (J774.A1) was “inactive”, the inhibition [9] was “Dose-Dependent Effect” and the inhibition [10] was “Active”. The inhibition [11] was “inactive”, the inhibition [12] was “inactive” and the Activity (THP-1) was “inactive”. It also gave an AUC(0-inf) [13] of 130 µg·h/mL, a clearance [14] of 0.0388 L/h/kg and a Tmax [15] of 40 min. For the same compound, the Cmax [16] was 33.9 µg/mL, the AUC(0-inf) [17] was 222 µg·h/mL and the Drug uptake [18] was “Active”. The Drug uptake [19] was “Active”, the Drug uptake [20] was “Active” and the Drug uptake [21] was “Active”. The Activity (Mus musculus [22]) was “Active”, the survival at 40 mg/kg (Mus musculus [23]) was 70% and the survival at 20 mg/kg (Mus musculus [24]) was 20%. For the same compound, the Activity (Mus musculus [25]) was “inactive” and the Activity (Mus musculus [26]) was “Active”.
